Reference: ChEMBL document CHEMBL1201862, “PubChem BioAssay data set” (2004)
Activity calls are given as the source filed them.

Assays:
[1] = molecular target: Serine hydrolase RBBP9 (Homo sapiens, UniProt O75884); assay: human RBBP9 inhibitor potency, late-stage follow-up, biochemical, gel-based ABPP, IC50, panel member Panel member description: RBBP9 IC50 Gel-based ABPP Assay (AID 2254)
[2] = molecular target: T1, Eukaryotic translation initiation factor 2-alpha kinase 3 (Homo sapiens, UniProt Q9NZJ5); assay: Dose response cell-based high-throughput screening assay to measure PERK inhibition. [Related pubchem assays: 1416 ]; type: functional
T1 sequence (Q9NZJ5 whole entry): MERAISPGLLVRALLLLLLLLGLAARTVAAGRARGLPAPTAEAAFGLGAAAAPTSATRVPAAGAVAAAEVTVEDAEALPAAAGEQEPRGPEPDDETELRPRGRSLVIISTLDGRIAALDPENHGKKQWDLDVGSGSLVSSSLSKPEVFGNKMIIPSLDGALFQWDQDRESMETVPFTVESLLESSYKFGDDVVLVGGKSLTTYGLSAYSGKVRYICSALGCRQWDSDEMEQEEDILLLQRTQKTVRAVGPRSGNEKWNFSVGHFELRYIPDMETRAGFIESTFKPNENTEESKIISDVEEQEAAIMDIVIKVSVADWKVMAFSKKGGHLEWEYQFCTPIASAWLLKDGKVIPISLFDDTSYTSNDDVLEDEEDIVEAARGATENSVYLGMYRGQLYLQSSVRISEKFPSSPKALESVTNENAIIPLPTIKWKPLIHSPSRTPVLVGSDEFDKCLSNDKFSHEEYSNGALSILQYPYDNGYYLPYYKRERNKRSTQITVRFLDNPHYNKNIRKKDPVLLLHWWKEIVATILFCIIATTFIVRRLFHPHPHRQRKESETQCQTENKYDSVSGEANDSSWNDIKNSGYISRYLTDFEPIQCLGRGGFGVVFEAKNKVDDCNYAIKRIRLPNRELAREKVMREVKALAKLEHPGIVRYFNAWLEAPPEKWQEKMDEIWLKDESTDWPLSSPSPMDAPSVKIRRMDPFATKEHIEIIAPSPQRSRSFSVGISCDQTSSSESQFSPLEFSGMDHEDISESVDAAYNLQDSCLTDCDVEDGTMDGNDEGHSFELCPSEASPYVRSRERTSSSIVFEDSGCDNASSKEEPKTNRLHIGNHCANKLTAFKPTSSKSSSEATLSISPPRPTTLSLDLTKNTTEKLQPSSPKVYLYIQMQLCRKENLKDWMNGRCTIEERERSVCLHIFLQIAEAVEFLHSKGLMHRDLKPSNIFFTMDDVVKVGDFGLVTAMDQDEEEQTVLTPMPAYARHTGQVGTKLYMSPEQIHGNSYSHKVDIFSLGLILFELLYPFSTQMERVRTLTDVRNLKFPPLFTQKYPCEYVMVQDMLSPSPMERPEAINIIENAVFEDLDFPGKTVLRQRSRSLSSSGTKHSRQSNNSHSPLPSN

[3] = molecular target: T1, Eukaryotic translation initiation factor 2-alpha kinase 3; assay: Counterscreen assay for PERK inhibitors: Dose response cell-based high throughput screening assay to measure inhibition of PERK at 6 hours. [Related pubchem assays: 1522, 1416 ]; type: functional
[4] = molecular target: FAD-linked sulfhydryl oxidase ALR (Homo sapiens, UniProt P55789); assay: inhibitors of human ALR sulfhydryl oxidase, dose response, biochemical, H2O2 detection, luminescence, cherry-pick (AID 493248)
Chain of FAD-linked sulfhydryl oxidase ALR (P55789 whole entry): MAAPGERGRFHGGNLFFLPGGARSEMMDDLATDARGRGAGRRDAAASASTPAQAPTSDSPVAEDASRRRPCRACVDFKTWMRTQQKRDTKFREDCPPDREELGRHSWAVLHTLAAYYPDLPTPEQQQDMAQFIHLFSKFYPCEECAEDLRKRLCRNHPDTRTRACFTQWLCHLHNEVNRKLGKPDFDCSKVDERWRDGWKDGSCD

[5] = test system: Staphylococcus aureus; assay: Inhibitors of Bacterial Quorum Sensing Structure Activity Relationship (SAR) Analysis: Dose Response Assay. [Related pubchem assays: 700, 527 ]; type: functional, organism-based
[6] = molecular target: T2, Neuropeptides B/W receptor type 1 (Homo sapiens, UniProt P48145); assay: GPR7 antagonist potency, late-stage follow-up, cell-based, fluorescence, dose response (AID 463251); type: functional
T2 sequence (P48145 whole entry): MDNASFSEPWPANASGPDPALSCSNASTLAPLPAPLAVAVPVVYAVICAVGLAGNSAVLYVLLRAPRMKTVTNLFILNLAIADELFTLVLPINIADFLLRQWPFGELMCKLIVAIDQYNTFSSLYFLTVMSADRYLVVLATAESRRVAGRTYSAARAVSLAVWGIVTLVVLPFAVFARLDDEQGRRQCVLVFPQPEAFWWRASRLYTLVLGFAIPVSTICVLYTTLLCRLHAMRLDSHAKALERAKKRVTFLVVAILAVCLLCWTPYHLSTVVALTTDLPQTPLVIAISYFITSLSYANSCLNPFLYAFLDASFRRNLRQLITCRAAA

[7] = molecular target: Melanin-concentrating hormone receptor 1 (Homo sapiens, UniProt Q99705); assay: Late-stage fluorescence-based counterscreen for antagonists of the G-protein coupled receptor 7 (GPR7): cell-based dose response assay to identify antagonists of the melanin-concentrating hormone receptor 1 (MCHR1). [Related pubchem assays (depositor defined):AID1861, AID1880, AID1952, AID2148, AID2251, AID2257, AID485339]; type: functional;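 also: stimulated with 30 nM MCH peptide agonist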
[8] = inhibitors of intracellular T. cruzi replication, confirmation, NIH3T3 host cells, beta-gal luminescence (AID 2044); type: functional, cell-based;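 also: intracellular parasites grown in NIH/3T3 mouse fibroblasts as host cells; luminescent beta-galactosidase reporter signal from transgenic T. cruzi replicating inside host cells; inhibitors lower the luminescence signal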
[9] = test system: Salmon testes DNA; assay: DNA intercalators displacing acridine orange, dose response, artefact control for KSHV LANA DNA-binding inhibitor project, biochemical, fluorescence polarization, cherry-picked samples, set 2 (AID 504727); design: species or system Salmonidae
[10] = cytotoxicity toward NIH3T3 fibroblasts, dose response, counter-screen, cell-based, ATP luminescence, mouse fibroblasts (AID 2010); type: functional;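 also: cells exposed to compound for about 90 hours before reading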
[11] = test system: HeLa; assay: HeLa cell cytotoxicity, dose response, cytotoxicity control, 24 h, cherry-picked samples (AID 504726); type: functional, cell-based; settings: Homo sapiens;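 also: potency for cytotoxicity as loss of luminescence signal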
[12] = molecular target: Photoreceptor-specific nuclear receptor (Homo sapiens, UniProt Q9Y5X4); type: functional;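 also: potency for compounds that break the NR2E3 corepressor complex and count as activators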
[13] = molecular target: Peroxisome proliferator-activated receptor gamma/Nuclear receptor corepressor 2 (Homo sapiens, UniProt P37231+Q9Y618); type: functional
[14] = molecular target: Lysosomal acid glucosylceramidase (Homo sapiens, UniProt P04062); assay: Dose response cell-based high throughput screening assay to identify enhancers of beta-glucosidase activity. [Related pubchem assays: 784 ]; type: functional
Chain of Lysosomal acid glucosylceramidase (P04062 whole entry): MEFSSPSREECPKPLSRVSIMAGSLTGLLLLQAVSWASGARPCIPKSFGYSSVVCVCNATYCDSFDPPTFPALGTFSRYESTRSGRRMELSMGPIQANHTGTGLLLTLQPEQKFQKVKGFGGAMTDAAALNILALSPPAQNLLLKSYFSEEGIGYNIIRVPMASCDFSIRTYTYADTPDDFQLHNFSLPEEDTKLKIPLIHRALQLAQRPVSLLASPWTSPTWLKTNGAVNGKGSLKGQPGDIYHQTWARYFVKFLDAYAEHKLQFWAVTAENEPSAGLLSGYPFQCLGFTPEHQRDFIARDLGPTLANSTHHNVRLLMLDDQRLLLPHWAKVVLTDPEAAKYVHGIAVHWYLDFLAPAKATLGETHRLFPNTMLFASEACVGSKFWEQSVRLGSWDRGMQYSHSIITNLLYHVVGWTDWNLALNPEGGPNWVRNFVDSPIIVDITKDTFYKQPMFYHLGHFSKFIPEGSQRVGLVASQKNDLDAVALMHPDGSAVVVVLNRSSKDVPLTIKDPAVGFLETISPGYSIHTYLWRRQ

[15] = molecular target: T3, Protein phosphatase methylesterase 1 (Homo sapiens, UniProt Q9Y570); assay: PME-1 inhibitor potency by in-gel ABPP, dose response, selectivity assay for PME-1 inhibitor project, cell lysate, mouse brain cytosol, FP-rhodamine, panel member PME-1 Assay Panel member description: Inhibition of endogenously expressed PME-1 (AID 2366)
T3 sequence (Q9Y570 whole entry): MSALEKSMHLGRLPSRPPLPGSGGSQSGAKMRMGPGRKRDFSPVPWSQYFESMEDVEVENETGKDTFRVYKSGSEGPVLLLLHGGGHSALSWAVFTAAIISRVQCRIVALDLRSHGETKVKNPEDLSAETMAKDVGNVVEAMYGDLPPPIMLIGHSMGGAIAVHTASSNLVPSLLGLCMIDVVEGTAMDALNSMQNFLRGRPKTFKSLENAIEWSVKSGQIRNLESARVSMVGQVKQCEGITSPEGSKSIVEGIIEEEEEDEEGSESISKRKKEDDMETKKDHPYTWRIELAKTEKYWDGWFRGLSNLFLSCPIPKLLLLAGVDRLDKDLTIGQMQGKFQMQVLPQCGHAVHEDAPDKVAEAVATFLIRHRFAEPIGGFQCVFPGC

[16] = molecular target: T3, Protein phosphatase methylesterase 1; assay: Late stage results from the probe development effort to identify inhibitors of the protein methylesterase PME-1: Gel-based Activity-Based Protein Profiling (ABPP) IC50: Purified enzyme.; type: functional
[17] = molecular target: Cytochrome P450 2D6 (Homo sapiens, UniProt P10635); assay: qHTS Assay for Inhibitors and Substrates of Cytochrome P450 2D6. [Related pubchem assays: 410 ]; type: ADME; settings: read-out: Potency
[18] = test system: HEK293; assay: TNF Induced NF-kB Luciferase in 293-NF-kB-Luc Stable Cells. [Related pubchem assays: 1266, 1299, 1269, 1373, 1292, 1290, 1302, 1371, 1283, 1270, 1295, 1271, 1375, 1294, 1374, 1281, 1293, 1291, 1289, 1280, 465, 1368, 1364, 1282, 1372, 1365, 1369, 1370, 1367, 1366 ]; type: functional, cell-based; settings: Homo sapiens
[19] = test system: HEK293; assay: PMA/Ionomycin induced NF-kB luciferase assay in 293- NF-kB-Luc stable cells. [Related pubchem assays: 1299, 1270, 1295, 1375, 1287, 1281, 1293, 1291, 1289, 1280, 465, 1364, 1282, 1372, 1365, 1370, 1367, 1366, 1269, 1373, 1292, 1290, 1302, 1371, 1283, 1271, 1294, 1374, 1368, 1369 ]; type: functional, cell-based; settings: Homo sapiens
[20] = test system: HEK293; assay: Cytotoxicity assay in HEK293 cells. [Related pubchem assays (depositor defined):AID1266, AID1269, AID1270, AID1271, AID1280, AID1281, AID1282, AID1283, AID1287, AID1289, AID1290, AID1291, AID1292, AID1293, AID1294, AID1295, AID1299, AID1302, AID1364, AID1365, AID1366, AID1367, AID1369, AID1370, AID1371, AID1372, AID1373, AID1374, AID1375, AID1384 …; type: functional, cell-based; settings: Homo sapiens
[21] = molecular target: Luciferin 4-monooxygenase (Photinus pyralis, UniProt P08659); assay: In vitro luciferase assay using purified luciferase. [Related pubchem assays: 1299, 1270, 1295, 1375, 1287, 1281, 1293, 1291, 1289, 1280, 465, 1364, 1282, 1372, 1365, 1370, 1367, 1366, 1266, 1373, 1292, 1290, 1302, 1371, 1283, 1271, 1294, 1374, 1368, 1369 ]
[22] = molecular target: X-box-binding protein 1 (Homo sapiens, UniProt P17861); type: functional, Cricetulus griseus;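 also: confirmatory dose-response counter-screen serving a CHOP assay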
[23] = growth suppression of beta-catenin-knockout colon cells, dose response, cell-based, HCT116, human colon tumor (AID 1045); type: functional;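 also: HCT116 colon tumor cells with beta catenin knocked out; cells exposed to compound for 60 hours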
[24] = growth suppression of PTEN-null colon cells, dose response, cell-based, HCT116 PTEN knockout (AID 1047); type: functional;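 also: HCT116 colon tumor cells with PTEN knocked out; cells exposed to compound for 60 hours before readout; potency for loss of cell viability measured by luminescence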
[25] = molecular target: T4, Voltage-dependent T-type calcium channel subunit alpha-1H (Homo sapiens, UniProt O95180); type: functional
T4 sequence (O95180 whole entry): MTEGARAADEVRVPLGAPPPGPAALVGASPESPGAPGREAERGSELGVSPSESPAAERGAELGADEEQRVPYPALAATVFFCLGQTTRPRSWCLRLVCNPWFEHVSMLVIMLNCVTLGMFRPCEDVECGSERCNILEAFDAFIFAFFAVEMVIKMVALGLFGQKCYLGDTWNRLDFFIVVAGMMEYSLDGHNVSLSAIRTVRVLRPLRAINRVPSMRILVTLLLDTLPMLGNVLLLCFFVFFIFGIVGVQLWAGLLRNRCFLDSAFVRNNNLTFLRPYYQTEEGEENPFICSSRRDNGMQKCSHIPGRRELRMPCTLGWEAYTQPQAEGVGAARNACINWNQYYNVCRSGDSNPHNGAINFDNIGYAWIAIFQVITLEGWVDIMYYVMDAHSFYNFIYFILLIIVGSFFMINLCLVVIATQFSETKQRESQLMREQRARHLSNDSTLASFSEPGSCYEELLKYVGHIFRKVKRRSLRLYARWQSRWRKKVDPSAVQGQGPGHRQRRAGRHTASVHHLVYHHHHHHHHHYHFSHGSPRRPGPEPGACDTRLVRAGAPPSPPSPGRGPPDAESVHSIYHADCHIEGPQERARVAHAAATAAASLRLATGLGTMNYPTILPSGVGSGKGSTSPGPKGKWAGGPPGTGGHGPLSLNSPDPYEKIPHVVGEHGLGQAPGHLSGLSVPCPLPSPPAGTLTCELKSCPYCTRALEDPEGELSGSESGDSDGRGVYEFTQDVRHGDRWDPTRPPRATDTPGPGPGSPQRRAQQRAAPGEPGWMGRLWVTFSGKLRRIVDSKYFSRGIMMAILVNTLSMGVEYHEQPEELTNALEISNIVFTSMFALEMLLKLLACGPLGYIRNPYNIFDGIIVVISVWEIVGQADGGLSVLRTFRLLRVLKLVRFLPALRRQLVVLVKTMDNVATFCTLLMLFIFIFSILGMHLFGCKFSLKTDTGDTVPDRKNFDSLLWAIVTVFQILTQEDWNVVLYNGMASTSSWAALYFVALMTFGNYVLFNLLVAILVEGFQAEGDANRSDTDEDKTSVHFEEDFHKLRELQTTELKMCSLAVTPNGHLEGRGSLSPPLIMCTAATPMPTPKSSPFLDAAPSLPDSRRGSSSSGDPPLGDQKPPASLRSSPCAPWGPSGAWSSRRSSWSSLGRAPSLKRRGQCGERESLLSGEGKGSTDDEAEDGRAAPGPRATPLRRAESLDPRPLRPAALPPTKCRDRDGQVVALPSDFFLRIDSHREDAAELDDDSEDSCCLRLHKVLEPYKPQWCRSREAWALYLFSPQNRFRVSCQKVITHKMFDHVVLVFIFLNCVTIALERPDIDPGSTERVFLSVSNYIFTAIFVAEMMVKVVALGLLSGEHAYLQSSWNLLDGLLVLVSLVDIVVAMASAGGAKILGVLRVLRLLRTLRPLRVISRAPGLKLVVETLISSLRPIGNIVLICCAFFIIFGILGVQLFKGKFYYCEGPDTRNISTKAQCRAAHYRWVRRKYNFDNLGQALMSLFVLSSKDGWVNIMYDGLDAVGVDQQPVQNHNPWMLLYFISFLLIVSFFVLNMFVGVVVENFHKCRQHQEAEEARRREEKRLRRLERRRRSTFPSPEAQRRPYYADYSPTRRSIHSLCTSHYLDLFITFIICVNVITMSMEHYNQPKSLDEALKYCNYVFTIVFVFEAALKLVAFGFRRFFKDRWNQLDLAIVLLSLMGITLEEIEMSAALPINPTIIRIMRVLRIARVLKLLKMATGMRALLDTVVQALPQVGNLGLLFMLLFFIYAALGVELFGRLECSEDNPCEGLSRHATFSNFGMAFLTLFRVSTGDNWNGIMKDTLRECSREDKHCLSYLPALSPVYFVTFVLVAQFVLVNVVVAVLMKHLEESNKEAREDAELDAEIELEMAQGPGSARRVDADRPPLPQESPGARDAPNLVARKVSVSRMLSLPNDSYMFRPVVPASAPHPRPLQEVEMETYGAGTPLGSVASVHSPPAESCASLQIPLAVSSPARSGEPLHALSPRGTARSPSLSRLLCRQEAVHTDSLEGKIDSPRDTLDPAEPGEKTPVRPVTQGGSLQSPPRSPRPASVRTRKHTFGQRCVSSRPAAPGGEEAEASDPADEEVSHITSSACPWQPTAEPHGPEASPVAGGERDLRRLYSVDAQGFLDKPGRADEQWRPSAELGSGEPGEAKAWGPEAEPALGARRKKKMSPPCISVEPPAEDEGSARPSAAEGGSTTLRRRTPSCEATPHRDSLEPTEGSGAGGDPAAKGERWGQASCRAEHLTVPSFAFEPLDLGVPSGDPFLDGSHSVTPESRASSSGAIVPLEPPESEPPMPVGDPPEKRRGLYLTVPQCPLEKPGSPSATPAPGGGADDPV

[26] = cytotoxicity toward DRD oncogenic fibroblasts, dose response, cell-based, non-viral oncogenic, luminescence (AID 1934); type: functional; settings: Homo sapiens
[27] = test system: BJ; assay: cytotoxicity toward BJ-TERT-LT-ST fibroblasts, dose response, cell-based, RAS-independent, luminescence (AID 1935); type: functional; settings: Homo sapiens;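 also: BJ fibroblasts immortalized with TERT plus LT and ST oncogenes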
[28] = molecular target: T4, Voltage-dependent T-type calcium channel subunit alpha-1H; assay: Inhibitors of T-Type Calcium Channels. [Related pubchem assays (depositor defined):AID449739, AID463087, AID489005, AID493041, AID504579, AID504584, AID504619, AID504628]; type: functional
[29] = test system: BJ; assay: cytotoxicity toward BJ-TERT fibroblasts, dose response, cell-based, RAS-independent, luminescence (AID 1933); type: functional; settings: Homo sapiens
[30] = test system: BJ; assay: cells; type: functional, cell-based; settings: Homo sapiens
[31] = molecular target: Envelope glycoprotein gp160 (Human immunodeficiency virus 1, UniProt Q6QLK5); assay: inhibitors of HIV fusion peptide binding, primary screen, biochemical, uHTS, fluorescence dequenching (AID 1986)
[32] = molecular target: Trypsin (Sus scrofa, UniProt P00761); assay: porcine trypsin inhibitors, dose response, selectivity assay for Rce1 protease inhibitor project, biochemical, quenched peptide fluorescence, cherry-pick (AID 488789)
Chain of Trypsin (P00761 whole entry): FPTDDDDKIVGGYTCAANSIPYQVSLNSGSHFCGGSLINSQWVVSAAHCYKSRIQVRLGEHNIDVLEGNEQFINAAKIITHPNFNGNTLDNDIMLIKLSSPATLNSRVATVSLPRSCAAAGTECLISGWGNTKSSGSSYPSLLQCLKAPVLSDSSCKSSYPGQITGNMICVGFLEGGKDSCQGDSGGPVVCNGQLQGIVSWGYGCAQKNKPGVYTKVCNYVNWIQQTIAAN

[33] = molecular target: T5, CAAX prenyl protease 2 (Saccharomyces cerevisiae S288c, UniProt Q03530); type: biochemical
T5 sequence (Q03530 whole entry): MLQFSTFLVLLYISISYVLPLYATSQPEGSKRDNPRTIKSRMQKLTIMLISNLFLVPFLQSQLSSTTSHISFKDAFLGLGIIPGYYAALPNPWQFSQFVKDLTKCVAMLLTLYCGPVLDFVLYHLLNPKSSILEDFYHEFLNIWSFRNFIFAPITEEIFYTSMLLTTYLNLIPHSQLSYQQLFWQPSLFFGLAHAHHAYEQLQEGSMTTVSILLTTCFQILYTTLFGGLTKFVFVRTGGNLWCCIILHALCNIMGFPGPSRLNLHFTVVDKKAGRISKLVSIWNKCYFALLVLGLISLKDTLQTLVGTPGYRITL

[34] = molecular target: T6, Streptokinase A (Streptococcus pyogenes serotype M1, UniProt P10520); assay: S. pyogenes streptokinase expression inhibitors, potency, dose response, plasminogen activation absorbance, OD405 (AID 1914); type: functional, Streptococcus pyogenes M1 GAS;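 also: secreted streptokinase activity via plasminogen activation per viability signal from cell pellet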
T6 sequence (P10520 whole entry): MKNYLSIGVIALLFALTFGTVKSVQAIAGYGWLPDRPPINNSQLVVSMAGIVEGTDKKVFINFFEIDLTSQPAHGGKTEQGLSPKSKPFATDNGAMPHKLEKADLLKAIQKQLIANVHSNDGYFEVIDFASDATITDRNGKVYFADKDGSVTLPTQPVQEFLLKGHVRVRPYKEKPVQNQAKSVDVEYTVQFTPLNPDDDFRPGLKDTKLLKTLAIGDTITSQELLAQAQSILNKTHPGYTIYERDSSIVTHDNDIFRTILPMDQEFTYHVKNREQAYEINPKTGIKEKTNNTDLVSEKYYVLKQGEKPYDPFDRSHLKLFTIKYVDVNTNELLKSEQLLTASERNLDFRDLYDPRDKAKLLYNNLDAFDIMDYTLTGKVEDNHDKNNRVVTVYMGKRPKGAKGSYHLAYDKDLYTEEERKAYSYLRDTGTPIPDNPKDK

[35] = test system: Streptococcus; assay: Luminescence Microorganism-Based Dose Response Follow up to Identify Compounds Cytotoxic to Streptococcus. [Related pubchem assays: 1677 (Project Summary), 1915, 1914, 1902 (Retest at Dose), 1900 (Counter Screen), 1662 (Primary HTS)]; type: functional, organism-based
[36] = test system: Streptococcus; assay: Group A Streptococcus viability loss, dose response, counter-screen for streptokinase expression inhibitor project, luminescence, BacTiterGlo (AID 1915); type: functional, organism-based;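 also: potency for reduction of bacterial viability or growth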
[37] = test system: Streptococcus sp. 'group A'; assay: growth inhibition of control SK(-) GAS strain, dose response, counter-screen for streptokinase expression inhibitor project, luminescence, kanamycin, BacTiterGlo, confirmation (AID 1900); type: functional, organism-based

Chain of Serine hydrolase RBBP9 (O75884 whole entry): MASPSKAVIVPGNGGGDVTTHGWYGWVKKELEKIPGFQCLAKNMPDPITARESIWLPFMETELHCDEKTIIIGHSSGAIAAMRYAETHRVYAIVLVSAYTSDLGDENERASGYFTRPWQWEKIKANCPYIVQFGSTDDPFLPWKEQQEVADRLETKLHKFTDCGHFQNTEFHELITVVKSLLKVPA

## C/C(=N\OC(=O)c1ccccc1)c1nccs1
[1]
  IC50: 5 µM (active)

## COc1ccccc1NC(=O)CSc1nnc(CCC(=O)Nc2ccccc2F)n1C
[2]
  EC50: > 55.7 µM (not active)
[3]
  EC50: > 55.7 µM (not active)

## COc1c(F)c(F)c(C(=O)O)c(Nc2ccc(C)cc2C)c1F
[4]
  AC50: 15.9 µM (active)
[5]
  IC50: 0.579 µM (active)

## COC(=O)/C=C/c1cnn(-c2ccc(C(C)C)cc2)c(=O)c1Oc1ccc(OC)cc1
[6]
  IC50: > 20 µM (inactive)
[7]
  IC50: > 20 µM (inactive)

## NNc1nc(-c2ccccc2)cs1
[8]
  EC50: 4.06 µM (active)
[4]
  AC50: 5.04 µM (active)
[9]
  AC50: 58.7 µM (active)
[10]
  EC50: 4.75 µM (active)
[11]
  AC50: > 350 µM (inactive)

## COC(=O)CCCCC1SCC2NC(=O)NC21O (stereo not drawn)
[12]
  IC50: 0.139 µM (active)
[13]
  IC50: 0.577 µM (active)

## Cc1cc(C)nc(Sc2nc(C)nc3c2oc2ccccc23)n1
[14]
  EC50: > 50 µM (not active)

## CS(=O)(=O)/C(C#N)=C/c1ccc[nH]1
[15]
  IC50: > 20 µM (inactive)
[16]
  IC50: > 20 µM (not active)

## COC1=C[C@H]2[C@@H]3Cc4ccc(OC)c(O)c4[C@@]2(CCN3C)CC1=O
[17]
  AC50: 20 µM (inconclusive)

## COc1ccc2ccccc2c1C(=O)/C=C/c1cccnc1
[18]
  EC50: 3.5 µM (active)
[19]
  EC50: 0.644 µM (active)
[20]
  EC50: 8.48 µM (inactive)
[21]
  EC50: > 8 µM (not active)

## NC(N)=C1C(=O)N(C2CCCCC2)C(=O)N(C2CCCCC2)C1=O
[22]
  Absolute IC50 (XBP1): 10 µM
[23]
  EC50: 25.5 µM (active)
[24]
  EC50: 24 µM (active)

## Clc1ccc(Cn2ncc3c(NCc4ccco4)ncnc32)c(Cl)c1
[25]
  EC50: 1.99 µM (active)
[26]
  EC50: 12.3 µM (inconclusive)
[27]
  EC50: > 150 µM (inconclusive)
[28]
  EC50: 9.5 µM (active)
[29]
  EC50: 9.56 µM (inconclusive)
[30]
  EC50: > 150 µM (not active)

## C/C(=C/CCC(C)C1CCC2(C)C3CCC4C(C)(C)C(=O)CCC4(C)C3=CCC12C)C(=O)O (stereo not drawn)
[31]
  IC50: > 99 µM (inactive)

## O=C1c2cccc(OCC(=O)N3N=C(c4cccs4)CC3c3ccc(F)cc3)c2CCN1Cc1cccnc1 (stereo not drawn)
[32]
  AC50: 12.9 µM (active)
[33]
  AC50: 13.1 µM (active)

## COc1ccc(Nc2ncnc3scc(-c4ccc(OC)cc4)c23)cc1
[34]
  EC50: 10.5 µM (active)
[35]
  EC50: > 500 µM (not active)
[36]
  EC50: > 150 µM (not active)
[37]
  EC50: 122 µM (active)
